Test results: PMC7442650, “A machine learning-based chemoproteomic approach to identify drug targets and binding sites in complex proteomes” (Nature Communications, 2020)
pEC50, pIC50: −log10 of the molar value. Several values for one entry are separate records, joined by “and”; a condition that tells them apart may be missing. Equal entries are not always repeated. Where two headings read alike, the source gives them in different places.

Tests used:
[1] = target: Bcin06g02870 (predicted casein kinase I homolog) (Botrytis cinerea, UniProt A0A384JJQ0); assay: LiP-Quant, Botrytis cinerea lysate; assay type: binding
Text: Given its abilities to identify and characterize drug targets and their binding sites, we applied LiP-Quant to a research fungicide compound with an unknown target (BAYE-004, Fig. 4a).

His-tagged Bcin06g02870 = assay: Cellular thermal shift assay (CETSA), western blot; assay type: cell-based, Botrytis cinerea; details: in vivo treatment, 56 °C
Description: Botrytis cinerea BO47 (CK1 His-Tagged) cell suspension was adjusted to 1 × 10^6 sp/ml GYPm and incubated for 24 h at 21 °C (110 rpm). […] Cells were harvested by filtration (100 µm) and rinsed with 15 ml of ice-cold HEPES buffer (0.1 M HEPES, 50 mM NaCl, pH 7.5). Harvested mycelium was resuspended in 3.5 ml HEPES buffer and kept on ice. 500 µl of each concentration was transferred to a 2 ml Eppendorf tube and heated to 56 °C on a thermoshaker for 3 min, an additional aliquot from each concentration was left unheated. After heating, cells were kept on ice for 3 min, snap frozen in liquid nitrogen, lyophilized overnight and then stored at −80 °C until protein extraction.
Lyophilized mycelium was lysed using a Retsch mixer mill (MM 400) with 3 mm tungsten carbide beads (30 Hz for 3 s, two cycles), then 500 µl of cold protein extraction buffer (50 mM HEPES, 50 mM NaCl, 0.4% NP-40) was added. Lysate was incubated for 10 min at 25 °C, centrifuged (10 min, 14,000g) and the supernatant was retained. The lysate was further centrifuged (20 min, 73,400g) to eliminate insoluble proteins. The supernatant was collected, and protein concentration was determined using the Qubit protein assay kit (#Q33211) and stored at −20 °C.
Target engagement was assessed by western blot. […] The membrane (target protein) and gel (loading control) were imaged using a ChemiDocXRS camera and quantified using ImageJ[43]. […]

[2] = target: T1, Botrytis cinerea MBP-CK1 recombinant enzyme (MBP-tagged Bcin06g02870) (Botrytis cinerea, UniProt A0A384JJQ0); assay: CK1 kinase assay (LANCE Ultra TR-FRET); assay type: biochemical; details: for % Inhibition of CK-1: rep 1, rep2
T1 sequence (A0A384JJQ0 1-368): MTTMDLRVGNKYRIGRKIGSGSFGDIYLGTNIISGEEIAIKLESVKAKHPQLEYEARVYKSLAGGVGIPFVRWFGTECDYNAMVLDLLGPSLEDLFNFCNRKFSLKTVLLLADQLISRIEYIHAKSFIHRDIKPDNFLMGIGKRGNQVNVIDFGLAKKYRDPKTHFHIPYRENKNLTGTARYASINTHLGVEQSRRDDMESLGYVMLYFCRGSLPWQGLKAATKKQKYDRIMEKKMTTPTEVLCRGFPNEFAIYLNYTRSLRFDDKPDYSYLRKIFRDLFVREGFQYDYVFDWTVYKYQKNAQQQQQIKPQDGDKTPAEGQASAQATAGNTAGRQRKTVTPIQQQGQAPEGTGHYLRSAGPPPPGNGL
Text: We calculated the center of mass of the #6 and #7 ranking LiP-Quant peptides to estimate the position of the BAYE-004 binding site within Bcin06g02870. Here we considered two LiP-Quant peptides for the center of mass calculation, as there were only two high scoring LiP-Quant peptides that could be used. The putative binding site of the drug maps in the ATP-binding site of Bcin06g02870, which is also a common binding site for kinase inhibitors (Fig. 4e, Supplementary Data 3). Finally, we performed a LANCE Ultra kinase assay (Perkin Elmer) to measure the phosphorylation activity on a peptide substrate of a purified MBP-tagged version of Bcin06g02870.
The LANCE Ultra time resolved fluorescence resonance energy transfer (Tr-FRET) kinase assay (Perkin Elmer, #TRF0300-C) protocol was used according to manufacturer’s instructions with adaptations made for the following conditions. […] The reaction was performed in duplicates in the dark at 30 °C for 90 min. Plates were read in a Victor2 Perkin plate reader (excitation 340 nm/emission 665 nm).

[3] = target: Bcin16g04330 (predicted glycogen synthase kinase-3β homolog) (Botrytis cinerea, UniProt A0A384K7E5); assay: LiP-Quant, Botrytis cinerea lysate; details: read-out: extrapolated average EC50; top two ranking LiP-Quant peptides
Botrytis cinerea = assay: Cell viability (IC50) assay, inhibition of cell growth by optical density; details: three days, Rep 1-3
Description: Botrytis cinerea BO5.10 (2 × 10^3 cells/ml) mycelium in GYPm liquid media (200 µl) was cultured at 21 °C without shaking in a micro-titer plate. […] The culture was grown for three days at 21 °C after inoculation at which point the optical density was measured again. Inhibition of cell growth was calculated at each concentration.

MAPK2K1 (MAP2K1) = MAPK2K1 (MAP2K1) (Homo sapiens, UniProt Q02750); assay: LiP-Quant, HeLa lysate; assay type: binding
[4] = target: SRPK1_HUMAN (SRSF protein kinase 1) (Homo sapiens, UniProt Q96SB4); assay: LiP-Quant, HeLa lysate; assay type: binding
[5] = test system: KS6A2_HUMAN (Ribosomal protein S6 kinase alpha-2)
[6] = target: KS6A3_HUMAN (Ribosomal protein S6 kinase alpha-3) (Homo sapiens, UniProt P51812); assay: LiP-Quant, HeLa lysate; assay type: binding
EIF2AK2 = EIF2AK2 (Homo sapiens, UniProt P19525); assay: Deep LiP-Quant (4h gradient), HeLa lysate; assay type: binding
RPS6KA3 = RPS6KA3 (Homo sapiens, UniProt P51812); assay: Deep LiP-Quant (4h gradient), HeLa lysate; assay type: binding
[7] = target: CAMK2G (KCC2G_HUMAN, Calcium/calmodulin-dependent protein kinase type II subunit gamma) (Homo sapiens, UniProt Q13555); assay: LiP-Quant, HeLa lysate; assay type: binding; details: staurosporine sheet; peptide NLINQMLTINPAK; LIPRank 5
[8] = target: CAMK2G (Calcium/calmodulin-dependent protein kinase type II subunit gamma, KCC2G_HUMAN) (Homo sapiens, UniProt Q13555); assay: LiP-Quant, HeLa lysate; assay type: binding; details: peptide NLINQMLTINPAK
NEK9 = NEK9 (Homo sapiens, UniProt Q8TD19); assay: Deep LiP-Quant (4h gradient), HeLa lysate
[9] = peptide LPSGVFSL, MAP2K1 (Q02750)
[10] = peptide STAGNFLVNPLEPK, SRPK1 (Q96SB4)
[11] = protein level, experiment LiP-Quant
[12] = peptide VLGQGSFGK, RPS6KA3 (P51812)

Sequence of CAMK2G (Calcium/calmodulin-dependent protein kinase type II subunit gamma, KCC2G_HUMAN) (Q13555 whole entry): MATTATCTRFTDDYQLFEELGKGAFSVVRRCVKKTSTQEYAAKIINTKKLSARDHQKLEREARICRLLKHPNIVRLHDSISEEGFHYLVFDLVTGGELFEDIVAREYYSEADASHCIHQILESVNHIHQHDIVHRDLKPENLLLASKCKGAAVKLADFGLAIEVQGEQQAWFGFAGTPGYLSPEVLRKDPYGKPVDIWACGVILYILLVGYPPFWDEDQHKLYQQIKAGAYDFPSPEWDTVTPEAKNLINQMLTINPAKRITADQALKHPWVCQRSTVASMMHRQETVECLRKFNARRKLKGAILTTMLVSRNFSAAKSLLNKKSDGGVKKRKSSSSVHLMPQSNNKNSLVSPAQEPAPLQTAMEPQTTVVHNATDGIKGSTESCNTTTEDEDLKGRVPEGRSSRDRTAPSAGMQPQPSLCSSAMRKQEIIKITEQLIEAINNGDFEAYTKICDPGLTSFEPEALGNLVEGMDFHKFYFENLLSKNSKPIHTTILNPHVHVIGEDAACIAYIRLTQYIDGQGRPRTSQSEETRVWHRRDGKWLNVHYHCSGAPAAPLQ
Sequence of SRPK1_HUMAN (SRSF protein kinase 1) (Q96SB4 whole entry): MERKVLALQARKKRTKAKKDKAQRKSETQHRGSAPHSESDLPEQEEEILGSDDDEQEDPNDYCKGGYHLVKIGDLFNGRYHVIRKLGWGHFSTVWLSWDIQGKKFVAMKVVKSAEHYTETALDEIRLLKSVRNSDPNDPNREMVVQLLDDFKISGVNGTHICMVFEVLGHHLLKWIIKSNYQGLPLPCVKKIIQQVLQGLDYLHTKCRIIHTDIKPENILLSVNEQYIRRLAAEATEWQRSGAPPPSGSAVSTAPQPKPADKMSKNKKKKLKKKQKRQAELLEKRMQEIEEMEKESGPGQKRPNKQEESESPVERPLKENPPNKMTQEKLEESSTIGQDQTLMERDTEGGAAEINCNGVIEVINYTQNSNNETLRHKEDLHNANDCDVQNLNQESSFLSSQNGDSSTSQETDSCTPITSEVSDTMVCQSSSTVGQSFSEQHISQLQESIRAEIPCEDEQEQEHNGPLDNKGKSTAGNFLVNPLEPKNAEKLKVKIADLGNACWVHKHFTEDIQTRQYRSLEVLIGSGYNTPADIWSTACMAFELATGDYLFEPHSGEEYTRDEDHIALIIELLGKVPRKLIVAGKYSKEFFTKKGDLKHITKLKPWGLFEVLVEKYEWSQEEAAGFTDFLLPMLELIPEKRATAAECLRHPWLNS
Sequence of MAPK2K1 (MAP2K1) (Q02750 whole entry): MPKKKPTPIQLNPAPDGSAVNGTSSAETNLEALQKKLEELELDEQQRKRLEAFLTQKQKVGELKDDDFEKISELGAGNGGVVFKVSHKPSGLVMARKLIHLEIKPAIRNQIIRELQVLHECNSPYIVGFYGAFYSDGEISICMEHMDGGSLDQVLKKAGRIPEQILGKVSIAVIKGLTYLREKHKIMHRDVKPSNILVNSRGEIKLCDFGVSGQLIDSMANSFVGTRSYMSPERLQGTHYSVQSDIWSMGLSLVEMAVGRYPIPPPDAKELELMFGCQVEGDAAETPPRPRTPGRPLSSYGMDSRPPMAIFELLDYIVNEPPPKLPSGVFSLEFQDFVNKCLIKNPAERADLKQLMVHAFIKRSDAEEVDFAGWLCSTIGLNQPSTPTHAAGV
Sequence of KS6A3_HUMAN (Ribosomal protein S6 kinase alpha-3) (P51812 whole entry): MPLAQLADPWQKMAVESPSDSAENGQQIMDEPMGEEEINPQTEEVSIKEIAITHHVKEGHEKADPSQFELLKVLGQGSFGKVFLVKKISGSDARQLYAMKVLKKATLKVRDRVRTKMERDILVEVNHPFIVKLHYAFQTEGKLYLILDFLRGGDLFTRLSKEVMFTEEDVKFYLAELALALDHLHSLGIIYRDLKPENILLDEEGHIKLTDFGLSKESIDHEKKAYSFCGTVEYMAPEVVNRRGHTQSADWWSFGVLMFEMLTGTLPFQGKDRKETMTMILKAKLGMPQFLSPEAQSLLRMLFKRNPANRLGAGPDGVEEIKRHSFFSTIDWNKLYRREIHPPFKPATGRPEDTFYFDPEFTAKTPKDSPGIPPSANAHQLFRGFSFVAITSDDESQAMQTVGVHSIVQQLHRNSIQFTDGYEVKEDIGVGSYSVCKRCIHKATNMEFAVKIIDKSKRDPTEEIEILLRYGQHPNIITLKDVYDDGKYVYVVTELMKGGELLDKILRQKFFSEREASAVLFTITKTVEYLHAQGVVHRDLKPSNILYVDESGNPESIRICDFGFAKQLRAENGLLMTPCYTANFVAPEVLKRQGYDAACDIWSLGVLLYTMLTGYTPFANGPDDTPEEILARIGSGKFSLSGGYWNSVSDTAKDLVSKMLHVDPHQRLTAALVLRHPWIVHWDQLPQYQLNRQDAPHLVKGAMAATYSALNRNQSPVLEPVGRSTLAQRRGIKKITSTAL
Sequence of NEK9 (Q8TD19 whole entry): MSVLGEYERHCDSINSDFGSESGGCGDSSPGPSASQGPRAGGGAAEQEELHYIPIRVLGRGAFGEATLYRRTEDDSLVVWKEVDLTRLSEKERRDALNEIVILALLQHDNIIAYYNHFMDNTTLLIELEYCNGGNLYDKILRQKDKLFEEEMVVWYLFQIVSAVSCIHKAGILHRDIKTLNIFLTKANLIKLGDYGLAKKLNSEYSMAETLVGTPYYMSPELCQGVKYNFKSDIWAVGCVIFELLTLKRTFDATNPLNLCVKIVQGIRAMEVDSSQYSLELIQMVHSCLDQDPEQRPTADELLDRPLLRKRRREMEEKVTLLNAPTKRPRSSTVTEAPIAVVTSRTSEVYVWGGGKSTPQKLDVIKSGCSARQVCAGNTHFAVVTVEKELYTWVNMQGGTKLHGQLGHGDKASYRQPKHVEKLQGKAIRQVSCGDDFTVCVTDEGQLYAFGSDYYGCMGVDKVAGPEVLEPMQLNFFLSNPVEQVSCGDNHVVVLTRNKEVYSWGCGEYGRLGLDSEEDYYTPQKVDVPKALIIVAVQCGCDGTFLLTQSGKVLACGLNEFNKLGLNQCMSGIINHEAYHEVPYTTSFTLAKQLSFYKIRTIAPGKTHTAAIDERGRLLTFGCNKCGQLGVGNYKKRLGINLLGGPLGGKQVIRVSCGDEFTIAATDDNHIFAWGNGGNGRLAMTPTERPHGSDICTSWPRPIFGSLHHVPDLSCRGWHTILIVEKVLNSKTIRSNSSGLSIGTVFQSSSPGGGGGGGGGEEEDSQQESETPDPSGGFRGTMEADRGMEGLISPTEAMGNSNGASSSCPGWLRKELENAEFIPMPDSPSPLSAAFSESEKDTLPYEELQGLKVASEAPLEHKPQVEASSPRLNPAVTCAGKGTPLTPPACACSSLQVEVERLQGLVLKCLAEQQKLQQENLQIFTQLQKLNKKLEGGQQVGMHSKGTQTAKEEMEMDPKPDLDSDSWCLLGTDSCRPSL
Sequence of RPS6KA3 (P51812 whole entry): as the sequence (P51812 whole entry) above
Sequence of EIF2AK2 (P19525 whole entry): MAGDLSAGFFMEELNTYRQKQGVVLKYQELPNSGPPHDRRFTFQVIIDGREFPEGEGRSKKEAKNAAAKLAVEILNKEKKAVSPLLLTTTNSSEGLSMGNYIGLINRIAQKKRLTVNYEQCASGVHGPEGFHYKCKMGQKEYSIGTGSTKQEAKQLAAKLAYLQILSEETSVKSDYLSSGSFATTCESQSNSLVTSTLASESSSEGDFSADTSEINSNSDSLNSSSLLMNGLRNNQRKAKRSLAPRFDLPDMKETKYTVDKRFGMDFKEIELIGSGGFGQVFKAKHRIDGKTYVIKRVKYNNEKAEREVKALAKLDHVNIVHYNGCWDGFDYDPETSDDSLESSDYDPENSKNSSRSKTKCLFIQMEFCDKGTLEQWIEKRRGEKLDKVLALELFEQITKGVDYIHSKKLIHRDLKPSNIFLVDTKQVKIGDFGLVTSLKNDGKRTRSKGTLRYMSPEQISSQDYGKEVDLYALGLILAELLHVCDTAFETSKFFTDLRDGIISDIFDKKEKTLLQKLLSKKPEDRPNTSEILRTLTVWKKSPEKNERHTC
Sequence of CAMK2G (KCC2G_HUMAN, Calcium/calmodulin-dependent protein kinase type II subunit gamma) (Q13555 whole entry): as the sequence (Q13555 whole entry) above
Sequence of Bcin16g04330 (predicted glycogen synthase kinase-3β homolog) (A0A384K7E5 1-398): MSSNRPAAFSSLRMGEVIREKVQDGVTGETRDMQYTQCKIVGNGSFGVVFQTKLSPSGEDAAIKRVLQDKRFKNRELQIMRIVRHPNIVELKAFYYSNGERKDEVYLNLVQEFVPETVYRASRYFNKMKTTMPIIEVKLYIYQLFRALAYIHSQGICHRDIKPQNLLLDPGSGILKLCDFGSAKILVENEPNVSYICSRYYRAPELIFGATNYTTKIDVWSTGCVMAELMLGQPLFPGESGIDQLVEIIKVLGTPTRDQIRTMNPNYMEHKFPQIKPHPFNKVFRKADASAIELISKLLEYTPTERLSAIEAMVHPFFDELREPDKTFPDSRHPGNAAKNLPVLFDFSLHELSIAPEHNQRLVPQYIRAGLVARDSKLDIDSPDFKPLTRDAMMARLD

`CCC(=O)Nc1cc(-c2c(-c3ccc(F)cc3)nn3c2CCC3)ccn1` [BAYE-004] was tested, and the “EC50 lower than EC50 of the rest of the LiP-Quant peptides above the 1.5 threshold” value [1] was “approximately 1000 fold”, the pEC50 ([1]; two peptides, LiP-Quant rank #6 and #7) was 8.22 and 8.30 and the “thermal stability upon treatment” value (His-tagged Bcin06g02870) was “thermally stabilized”. For the same molecule, the “% Inhibition of CK-1” value ([2]; concentration 1,00E-04 (unit not given)) was 92% and 90%, the “% Inhibition of CK-1” value ([2]; concentration 1,00E-05 (unit not given)) was 98% and 105% and the “% Inhibition of CK-1” value ([2]; concentration 1,00E-06 (unit not given)) was 99% and 101%. For the same molecule, the “% Inhibition of CK-1” value ([2]; concentration 1,00E-07 (unit not given)) was 84% and 91%, the “% Inhibition of CK-1” value ([2]; concentration 1,00E-08 (unit not given)) was 53% and 50% and the “% Inhibition of CK-1” value ([2]; concentration 1,00E-09 (unit not given)) was 9%. It also gave a pIC50 ([2]; read-out: IC50 (% Inhibition of CK-1)) of 7.90, a pEC50 [3] of 5.80 and an inhibition at 0.40745 µM (Botrytis cinerea; Botrytis cinerea, 72 h, read-out: Inhibition of growth, Dose 0.40745 uM) of 76.8%. For the same molecule, the inhibition at 1.22234 µM (Botrytis cinerea; Botrytis cinerea, 72 h, read-out: Inhibition of growth, Dose 1.22234 uM) was 82.5%, the Inhibition of growth (Botrytis cinerea; Dose 0.40745 uM) was 76.882 and 79.9248 and the Inhibition of growth (Botrytis cinerea; Dose 1.22234 uM) was 82.7279 and 79.8427.

For `CN[C@@H]1C[C@H]2O[C@@](C)([C@@H]1OC)n1c3ccccc3c3c4c(c5c6ccccc6n2c5c31)C(=O)NC4` [Staurosporine], the DRC (MAPK2K1 (MAP2K1); [9]) was 0.9366, the LIPRank (MAPK2K1 (MAP2K1); [9]) was 2 and the LIPscore (MAPK2K1 (MAP2K1); peptide VSIAVIK (selumetinib sheet) or best peptide of the protein (Supp Data 7)) was 2.822. The LIPRank (MAPK2K1 (MAP2K1); peptide VSIAVIK (selumetinib sheet) or protein level (Supp Data 7)) was 2, the LIPscore (MAPK2K1 (MAP2K1); staurosporine sheet, peptide LPSGVFSL, LIPRank 2) was 2.822 and the DRC [4, 10] was 0.9525. The LIPRank [4, 10] was 1, the LIPRank [4, 11] was 1 and the LIPscore [4, 11] was 3.113. The LIPscore ([4]; staurosporine sheet, peptide […], LIPRank 1) was 3.113, the LIPscore [5, 11] was 2.777 and the LIPscore ([5]; staurosporine sheet, peptide […], LIPRank 3) was 2.777. It also gave a DRC [6, 12] of 0.9262, an LIPRank [6, 12] of 4 and an LIPRank [6, 11] of 4. For the same molecule, the LIPscore [6, 11] was 2.665, the LIPscore ([6]; staurosporine sheet, peptide VLGQGSFGK, LIPRank 4) was 2.665 and the LiP Score (EIF2AK2; peptide IGDFGLVTSLK) was 4.708. It also gave an LIPRank (EIF2AK2; protein level) of 2, a LiP Score (RPS6KA3; peptide ADPSQFELLK) of 4.635 and an LIPRank (RPS6KA3; protein level) of 3. The LIPscore [7] was 2.655, the DRC [8] was 0.9333 and the LIPRank [8] was 5. The LIPscore [8] was 2.655, the LiP Score (NEK9; peptide GAFGEATLYR) was 4.511 and the LIPRank (NEK9; protein level) was 4.
